Results taken from PubChem BioAssay (NCI).
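Protocol summary: plate cells (96-well), add compound at 5 concentrations, incubate 48 h, interpolate endpoints linearly. TGI: concentration producing complete growth inhibition.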

Test system: P388 leukemia
Assay: NCI tumour cell line growth inhibition, 48 h

C=C(C)C(=O)NC(N)=NC#N was tested, and the TGI was 13.9 µM.
